Converted amounts (≈) assume the structure as drawn. Counter-ions that a name gives are not always drawn. Like-named read-outs stand apart in the source and are kept apart here.
Columns and labels:
Assay type in all cases: cell-based
[1] = test system: Aspergillus flavus AFL1 (ATCC MYA-3631); experiment: Fungal MIC Protocol, Aspergillus flavus; conditions: for MIC: Aspergillus flavus, read-out: MIC Aspergillus flavus 3631
Method in brief: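 Aspergillus flavus spores were grown on Potato Dextrose Agar at 35° C. for 3-5 days, harvested in PBS pH 7.4+0.1% Tween-20 with glass beads, and diluted in RPMI/MOPS to an OD530 of 0.002 (about 2×10^4 cfu/mL). 50 ul of spores were combined with 50 μl of serially diluted compound in 96-well round bottom plates and incubated at 35° C. for 48 hours.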

[2] = test system: Aspergillus fumigatus T33439 (ATCC MYA-3626); experiment: Fungal MIC Protocol, Aspergillus fumigatus; conditions: for MIC: Aspergillus fumigatus, read-out: MIC Aspergillus fumigatus 3626
Method in brief: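 Aspergillus fumigatus was grown on Potato Dextrose Agar at 35° C. for 3-5 days, and spores were collected with PBS pH 7.4+0.1% Tween-20 plus glass beads. Spores were diluted in RPMI/MOPS to OD530 0.002 (about 2×10^4 cfu/mL). 50 ul was added to 50 μl of serially diluted compound in round bottom 96-well plates, run in duplicate, and incubated at 35° C. for 48 hours.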

[3] = test system: Fusarium falciforme FS1 (ATCC MYA-3636); experiment: Fungal MIC Protocol, Fusarium falciforme; conditions: for MIC: Fusarium falciforme, read-out: MIC Fusarium falciforme 3636
Method in brief: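 Fusarium falciforme spores were raised on Potato Dextrose Agar at 35° C. for 3-5 days, collected in PBS pH 7.4+0.1% Tween-20 with glass beads, and diluted in RPMI/MOPS pH 7.0 to OD530 0.005 (about 2×10^4 cfu/mL). 50 ul spores were added to 50 μl duplicate serial compound dilutions in round bottom 96-well plates and incubated at 35° C. for 48 hours.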

[4] = test system: Fusarium solani (ATCC 58877); experiment: Fungal MIC Protocol, Fusarium solani; conditions: for MIC: Fusarium solani, read-out: MIC Fusarium solani 58877
Method in brief: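 Fusarium solani spores were grown on Potato Dextrose Agar in tissue culture flasks at 35° C. for 3-5 days, harvested with PBS pH 7.4+0.1% Tween-20 and glass beads, and diluted in RPMI/MOPS to an OD530 of 0.005 (about 2×10^4 cfu/mL). Equal 50 ul volumes of spores and serially diluted compound were combined in 96-well round bottom plates and incubated 48 hours at 35° C.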

[5] = test system: Mucor circinelloides 1463(62) (ATCC 26759); experiment: Fungal MIC Protocol, Mucor circinelloides (MIC-50); conditions: for MIC50: Mucor circinelloides, read-out: MIC-50 Mucorales circinelloides 26579
Method in brief: (§1)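 MIC-type endpoint: >50% growth inhibition, judged by eye with an inverted mirror. Spores in RPMI/MOPS (pH 7.0, ~2×10^4 cfu/mL) were incubated 48 hours at 35° C with duplicate serial compound dilutions.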

[6] = test system: Mucor ramosissimus 057718 (ATCC 90286); experiment: Fungal MIC Protocol, Mucor ramosissimus (MIC-50); conditions: for MIC50: Mucor ramosissimus, read-out: MIC-50 Mucorales ramosissimus 90286
Method in brief: as §1

Candida albicans GDH2346 = experiment: Candida Minimal Inhibitory Concentration (MIC); conditions: for MIC50: Candida albicans, read-out: MIC-50 Candida albicans GDH2346
Method in brief: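 Twofold serial dilutions from 200 μg/mL in RPMI 1640/MOPS with glucose, pH 7.0, tested in duplicate against yeast from an OD600 1.0 suspension diluted 1:1000. Incubated at 35° C; OD600 read at 24 and 48 h.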

[7] = 100% growth inhibition at 48 hours
[8] = ATCC58877, 100% growth inhibition at 48 hours
[9] = ATCC26759, 50% growth inhibition at 48 hours
[10] = ATCC90286, 50% growth inhibition at 48 hours
[11] = GDH2346, 50% growth inhibition at 48 hours
[12] = 50% growth inhibition at 48 hours

| Compound | MIC [1, 7] | MIC [2, 7] | MIC [3, 7] | MIC [4, 8] | MIC50 [5, 9] | MIC50 [6, 10] | MIC50 (Candida albicans GDH2346; [11]) | other results |
| --- | --- | --- | --- | --- | --- | --- | --- | --- |
| Cn1c(-c2cc(F)c(C3=CCN(C(=N)N)CC3)cc2F)nnc1-c1cc(F)c(C2=CCN(C(=N)N)CC2)cc1F [Example 20, 4,4′-(4,4′-(4-Methyl-4H-1,2,4-triazole-3,5-diyl)bis(2,5-difluoro-4,1-phenylene))bis(5,6-dihydropyridine-1(2H)-carboximidamide)] | 0.2 µg/mL (≈ 0.361 µM) | < 0.1 µg/mL | < 0.1 µg/mL | 0.2 µg/mL (≈ 0.361 µM) | 0.78 µg/mL (≈ 1.41 µM) | 12.5 µg/mL (≈ 22.6 µM) | 0.78 µg/mL (≈ 1.41 µM) |  |
| Cc1cc(-c2nnc(-c3ccc(C4=CCN(C(=N)N)CC4)c(C)c3)n2C)ccc1C1=CCN(C(=N)N)CC1 [Example 24, 4,4′-(4,4′-(4-Methyl-4H-1,2,4-triazole-3,5-diyl)bis(2-methyl-4,1-phenylene)) bis(5,6-dihydropyridine-1(2H)-carboximidamide)] | 1.56 µg/mL (≈ 3.06 µM) | 0.78 µg/mL (≈ 1.53 µM) | 0.78 µg/mL (≈ 1.53 µM) | 0.78 µg/mL (≈ 1.53 µM) | 6.25 µg/mL (≈ 12.3 µM) | 50 µg/mL (≈ 98.1 µM) | 1.56 µg/mL (≈ 3.06 µM) |  |
| COCCn1c(-c2ccc(C3=CCC(C(=N)N)CC3)cc2F)nnc1-c1ccc(C2=CCC(C(=N)N)CC2)cc1F.O=C(O)C(F)(F)F (stereo not shown) [Example 86, 4-(4-{5-[4-(4-carbamimidoylcyclohex-1-en-1-yl)-2-fluorophenyl]-4-(2-methoxyethyl)-4H-1,2,4-triazol-3-yl}-3-fluorophenyl)cyclohex-3-ene-1-carboximidamide trifluoroacetate] | 0.78 µg/mL | 0.78 µg/mL | 0.78 µg/mL | 0.2 µg/mL | 1.56 µg/mL | 6.25 µg/mL | 0.78 µg/mL |  |
| 4,4-(4,4-(4-Cyclohexyl-4H-1,2,4-triazole-3,5-diyl)bis(4,1-phenylene))bis (5,6-dihydropyridine-1(2H)-carboximidamide) [Example 56] |  |  |  |  |  |  |  | MIC Aspergillus flavus 3631 [1, 7]: 0.39 µg·mL; MIC Aspergillus fumigatus 3626 [2, 7]: 0.39 µg·mL; MIC Fusarium falciforme 3636 [3, 7]: <0.1 µg·mL; MIC Fusarium solani 58877 [4, 7]: <0.1 µg·mL; MIC-50 Mucorales circinelloides 26579 [5, 12]: 0.39 µg/mL; MIC-50 Mucorales ramosissimus 90286 [6, 12]: 1.56 µg/mL; MIC-50 Candida albicans GDH2346 (Candida albicans GDH2346; [12]): 0.78 µg/mL |
| Cc1cc(C2=CCN(C(=N)N)CC2)ccc1-c1nnc(-c2ccc(C3=CCN(C(=N)N)CC3)cc2)n1C [Example 21, 4-(4-(5-(4-(1-Carbamimidoyl-1,2,3,6-tetrahydropyridin-4-yl)-2-methylphenyl)-4-methyl-4H-1,2,4-triazol-3-yl)phenyl)-5,6-dihydropyridine-1(2H)-carboximidamide] | 0.39 µg/mL (≈ 0.787 µM) | 0.2 µg/mL (≈ 0.404 µM) | 0.2 µg/mL (≈ 0.404 µM) | 0.2 µg/mL (≈ 0.404 µM) | 3.13 µg/mL (≈ 6.32 µM) | 6.25 µg/mL (≈ 12.6 µM) | 0.3 µg/mL (≈ 0.605 µM) |  |
| Cn1c(-c2ccc(C3=CCN(C(=N)N)CC3)cc2F)nnc1-c1ccc(C2=CCN(C(=N)N)CC2)cc1F [Example 8, 4,4′-(4,4′-(4-Methyl-4H-1,2,4-triazole-3,5-diyl)bis(3-fluoro-4,1-phenylene)) bis(5,6-dihydropyridine-1(2H)-carboximidamide)] | 0.05 µg/mL (≈ 0.0966 µM) | 0.05 µg/mL (≈ 0.0966 µM) | 0.006 µg/mL (≈ 0.0116 µM) | 0.05 µg/mL (≈ 0.0966 µM) | 0.2 µg/mL (≈ 0.386 µM) | 0.39 µg/mL (≈ 0.753 µM) | 0.1 µg/mL (≈ 0.193 µM) |  |
| N=C(N)N1CC=C(c2ccc(-c3nnc(-c4ccc(C5=CCN(C(=N)N)CC5)cc4F)n3CC(F)(F)F)c(F)c2)CC1 [Example 84, 4-(4-{5-[4-(1-carbamimidoyl-1,2,3,6-tetrahydropyridin-4-yl)-2-fluorophenyl]-4-(2,2,2-trifluoroethyl)-4H-1,2,4-triazol-3-yl}-3-fluorophenyl)-1,2,3,6-tetrahydropyridine-1-carboximidamide hydrochloride] |  |  |  |  |  |  |  | MIC ([1]; 48 h): 0.39 µg/mL; MIC ([2]; 48 h): 0.2 µg/mL; MIC ([3]; 48 h): 0.1 µg/mL; MIC ([4]; ATCC58877, 48 h): 0.05 µg/mL; MIC50 ([5]; ATCC26759, 48 h): 0.39 µg/mL; MIC50 ([6]; ATCC90286, 48 h): 0.78 µg/mL; MIC50 (Candida albicans GDH2346; GDH2346, 48 h): 0.2 µg/mL |

Reference: patent US20240018121A1, “NOVEL HETEROAROMATIC COMPOUNDS EXHIBITING ANTIFUNGAL ACTIVITY AND THEIR METHOD OF USE” (FOX CHASE CHEMCIAL DIVERSITY CENTER, INC., priority 2020, published 2024)
